# Structures can show the parent of a compound that is named as a salt. Where two headings read alike, the source gives them in different places.
# Columns and labels:
# Type in all cases: physicochemical
# [1] = Particle density, true density and particle packing rate; conditions: trihydrate; for Particle packing rate: particle density / true density x 100
# Description: “Particle density” in the present description is mass per unit volume when the volume of the substance itself as well as the volume of the open void and the closed void are included as the volume of polycrystalline particles. For example, when the polycrystalline particles are spherical particles, the particle density is calculated by the following formula using the mean mass of the polycrystalline particles and the mean volume of the polycrystalline particles:
# Here, the mean mass of polycrystalline particles is calculated by measuring the number of polycrystalline particles contained in 1.0 mg or more, preferably 5.0 mg or more, and more preferably 10.0 mg or more of a sample by a scanner, etc. The mean volume of crystal particles is obtained by averaging the volume calculated by photographing 500 or more, preferably 1,000 or more, and more preferably 5,000 or more crystal particles by a light microscope, etc., using an equivalent circle diameter obtained from the projected area of polycrystalline particles, and assuming that the polycrystalline particles are true spheres. At this time, it is desirable that the distribution of the equivalent circle diameter is unimodal and the sharpness value is less than 1.5.
# “Particle packing rate” of a polycrystal in the present description is a value calculated by the following formula:
# Particle packing rate (%)=(particle density)/(true density of compound)×100 [Equation 8]
# Here, “true density of compound” is a density of a substance itself not including a void. If no void exists at all inside or on the surface of a particle, the particle packing rate is 100%. The true density of a compound can be obtained by dry density measurement by the constant volume expansion method. Examples of the measuring device include a dry automatic densimeter AccuPyc II 1340-10CC manufactured by Shimadzu Corporation.
# The particle size distribution was measured in a dry manner using a spray particle size distribution analyzer AEROTRAC LDSA-SPR3500A manufactured by Microtrac Inc. The particle size distribution in Examples 2 and 7 was measured in a dry manner using a laser diffraction particle size distribution measurement MASTERSIZER 3000 manufactured by Malvern Panalytical Ltd. SEM images were measured using a scanning electron microscope JSM-IT100 manufactured by JEOL Ltd. Light microscope images were measured using an upright microscope BX53M manufactured by Olympus Corporation and a microscope digital camera DP74 manufactured by Olympus Corporation. Images for measuring the number of particles were obtained by a scanner GT-X830 manufactured by SEIKO EPSON CORPORATION. The powder X-ray diffraction (XRD) was measured using a desktop X-ray diffraction device MiniFlex300 manufactured by Rigaku Corporation. The specific surface area was measured by the BET fluid process (gas used: pure nitrogen) using a fully automatic specific surface area measuring device Macsorb HM-1208 manufactured by Mountech Co., Ltd. The moisture content was measured using a trace moisture measuring device AQ-2200 manufactured by […] SANGYO Co., Ltd. The dissolution profile was measured using μDISS Profiler manufactured by Pion Inc. Centrifugal classification was performed using a high-efficiency precision forced air classifier Lab Calssiel N-01 manufactured by SEISHIN […] Co., Ltd. Image analysis was performed using image processing software ImageJ developed by the National Institute of Health (NIH). The particle strength was measured using a particle hardness measuring device NEW GRANO manufactured by OKADA SEIKO CO., LTD. The true density was measured using a dry automatic densimeter AccuPyc II 1340-10CC manufactured by Shimadzu Corporation. The purity of a compound was measured by a high performance liquid chromatograph (LC-20A) manufactured by Shimadzu Corporation. […]
# [2] = Particle size distribution (d50, sharpness index); parameters: key to sharpness index of the crystal thus obtained / sharpness index of the fine powders: calculated by formula from d10, d50, d90; 1.0 = most uniform particle size
# Excerpt: d10 in the present description is a value obtained from a particle size distribution analyzer, and represents a particle size of a particle corresponding to 10% of accumulation from the smaller particle side in the particle size distribution based on the volume.
# d50 in the present description is a value obtained from a particle size distribution analyzer, and represents a particle size of a particle corresponding to 50% of accumulation from the smaller particle side in the particle size distribution based on the volume.
# “Sharpness index” in the present description is an index representing the uniformity of a particle size of a particle in a powder, and a sharpness index of 1.0 represents a powder having the most uniform particle size. The closer the sharpness index is to 1.0, the more the particle size of the powder is uniform. Specifically, the sharpness index represents a value calculated using the following formula from the values of d10, d50, and d90 measured by a particle size distribution analyzer:
# Images for measuring the number of particles were obtained by a scanner GT-X830 manufactured by SEIKO EPSON CORPORATION. The powder X-ray diffraction (XRD) was measured using a desktop X-ray diffraction device MiniFlex300 manufactured by Rigaku Corporation. […] The particle strength was measured using a particle hardness measuring device NEW GRANO manufactured by OKADA SEIKO CO., LTD. […] The purity of a compound was measured by a high performance liquid chromatograph (LC-20A) manufactured by Shimadzu Corporation.
# [3] = Sphericity from SEM images (ImageJ); parameters: key: 1 = true sphere; closer to 1 = more spherical; mean of ≥5 particles
# Excerpt: In the present description, “spherulite” means a crystal aggregate (polycrystal) which has a radial or concentric thin layered structure and has a spherical outer shape. Whether the crystal obtained by the method of the present invention is a spherulite or not can be determined, for example, by observing the outer shape of the crystal using SEM. For example, it can be discriminated by cutting the crystal aggregate and observing the internal structure thereof using SEM. The sphericity of the spherulite obtained by the method of the present invention is usually 0.60 or more, preferably 0.70 or more, more preferably 0.80 or more, particularly preferably 0.90 or more, and most preferably 0.95 or more. The sphericity can be calculated by the following method.
# When an image of particles taken by SEM is analyzed using image processing software ImageJ, a coordinate group representing the position of pixels forming the outline of a particle is obtained. The length of the coordinate group is defined as N, and one pixel coordinate of each outline is defined as p[i] (1≤i≤N). The angle between a straight line l(k) connecting two points p[k] and p[k+N/D] and a straight line m(k) connecting two points p[k+N/D] and p[k+2N/D] is defined as θ(k) (−180°<θ<180°) (1≤k≤N, 1≤D≤N). D corresponds to the number of partitions of the outline. When N/D is not a natural number, the value is defined as the quotient obtained by dividing N by D. By calculating this angle with k=1 to N, N pieces of θ value can be obtained.
# When the particle is a true sphere, θ(k) is 360/D, and the closer the particle is to a true sphere, the closer θ(k) is to this value. The error between θ(k) and the true value 360/D is evaluated by the root-mean-square error (RMSE) of the following formula:
# Using the RMSE value of when D is 10 (θ(k)=36°), the sphericity is defined by the following formula: […]
# The sphericity is 1 in a true sphere, and the closer the particle is to a true sphere, the closer the sphericity is to 1. Meanwhile, the sphericity of an ellipse whose long axis is infinitely long is zero. The sphericity is measured for five or more particles to calculate the mean. This mean is defined as the sphericity of each sample (see FIGS. 42 and 43).
# [4] = dry particle size distribution, volume based
# [5] = SEM image analysis, mean of particles
# [6] = calculated from d10, d50, d90, trihydrate
# [7] = dry particle size distribution, volume based, trihydrate
# [8] = SEM image analysis, mean of particles, trihydrate
SMILES,"sharpness index of the crystal thus obtained ([2]; calculated from d10, d50, d90)","d50 of the crystal thus obtained [2, 4] [μm]","sphericity of the spherulite [3, 5]",further results
"COc1ccc2[n-]c([S@@+]([O-])Cc3ncc(C)c(OC)c3C)nc2c1.COc1ccc2[n-]c([S@@+]([O-])Cc3ncc(C)c(OC)c3C)nc2c1.O.O.O.[Mg+2] [Sample 2, esomeprazole magnesium trihydrate]",,,,Particle packing rate [1]: 64%; Particle density [1]: 0.87 g/mL
"CN(C)CCC[C@@]1(c2ccc(F)cc2)OCc2cc(C#N)ccc21 [Example 19, escitalopram oxalate]",4.87,50.7,0.98±0.01,
"CCCCCCOC(=O)N=C(N)c1ccc(NCc2nc3cc(C(=O)N(CCC(=O)OCC)c4ccccn4)ccc3n2C)cc1 [Example 24, dabigatran etexilate methanesulfonate]",2.61,61.3,0.95±0.03,
"COc1ccc2[n-]c([S@@+]([O-])Cc3ncc(C)c(OC)c3C)nc2c1.COc1ccc2[n-]c([S@@+]([O-])Cc3ncc(C)c(OC)c3C)nc2c1.O.O.O.[Mg+2] [Example 10(1), esomeprazole magnesium trihydrate]",,,,"sharpness index of the crystal thus obtained [2, 6]: 1.51; d50 of the crystal thus obtained [2, 7]: 39.9 μm; d50 ([2]; samples of filtration test (Table 7), trihydrate): 39.9 μm; sphericity of the spherulite [3, 8]: 0.97±0.01"
"COc1ccc2[n-]c([S@@+]([O-])Cc3ncc(C)c(OC)c3C)nc2c1.COc1ccc2[n-]c([S@@+]([O-])Cc3ncc(C)c(OC)c3C)nc2c1.O.O.O.[Mg+2] [Example 2, esomeprazole magnesium trihydrate]",,,,"sharpness index of the fine powders ([2]; after centrifugal classification and sieving): 1.3; d50 of the fine powders ([2]; after centrifugal classification and sieving (on 390 M, 38 μm)): 54.6 μm; sharpness index of the crystal thus obtained [2, 6]: 2.5; d50 of the crystal thus obtained [2, 7]: 56.1 μm; sphericity of the spherulite [3, 8]: 0.95±0.03"
"CC[C@H]1OC(=O)[C@H](C)[C@@H](O[C@H]2C[C@@](C)(OC)[C@@H](O)[C@H](C)O2)[C@H](C)[C@@H](O[C@@H]2O[C@H](C)C[C@H](N(C)C)[C@H]2O)[C@](C)(O)C[C@@H](C)CN(C)[C@H](C)[C@@H](O)[C@]1(C)O [Example 12, azithromycin monohydrate]",1.5,75,0.89±0.02,
"Cn1c(=O)c2[nH]cnc2n(C)c1=O.O.O.O.O.[Mg] [Example 26, theophylline magnesium salt tetrahydrate]",3.06,43.0,0.95±0.02,
"O=C(O)CCCN1CCC(O[C@@H](c2ccc(Cl)cc2)c2ccccn2)CC1.O=S(=O)(O)c1ccccc1 [Example 30, bepotastine besilate]",2.15,105,0.98±0.01,
"COc1ccc2[n-]c([S@@+]([O-])Cc3ncc(C)c(OC)c3C)nc2c1.COc1ccc2[n-]c([S@@+]([O-])Cc3ncc(C)c(OC)c3C)nc2c1.O.O.O.[Mg+2] [Example 7, esomeprazole magnesium trihydrate]",,,,"sharpness index of the crystal thus obtained [2, 6]: 1.40; d50 of the crystal thus obtained [2, 7]: 189 μm; sphericity of the spherulite [3, 8]: 0.97±0.01"
"CC[C@H]1OC(=O)[C@H](C)[C@@H](O[C@H]2C[C@@](C)(OC)[C@@H](O)[C@H](C)O2)[C@H](C)[C@@H](O[C@@H]2O[C@H](C)C[C@H](N(C)C)[C@H]2O)[C@](C)(OC)C[C@@H](C)C(=O)[C@H](C)[C@@H](O)[C@]1(C)O [Example 13, clarithromycin]",4.6,16,0.87±0.08,
"COc1ccc2[n-]c([S@@+]([O-])Cc3ncc(C)c(OC)c3C)nc2c1.COc1ccc2[n-]c([S@@+]([O-])Cc3ncc(C)c(OC)c3C)nc2c1.O.O.O.[Mg+2] [Sample 3, esomeprazole magnesium trihydrate]",,,,Particle packing rate [1]: 88%; Particle density [1]: 1.21 g/mL
"N[C@@H](CCC(=O)N[C@@H](CS)C(=O)NCC(=O)O)C(=O)O [Example 23, glutathione]",2.27,48.4,0.85±0.07,
"Nc1nc(CC(=O)Nc2ccc(CCNC[C@H](O)c3ccccc3)cc2)cs1 [Example 27, mirabegron]",1.66,148,0.98±0.01,
"COC(=O)[C@H](c1ccccc1Cl)N1CCc2sccc2C1 [Example 16, clopidogrel sulfate]",1.7,133,0.96±0.02,
"CNCC[C@H](Oc1cccc2ccccc12)c1cccs1 [Example 15, duloxetine hydrochloride]",,,,d50 of the crystal thus obtained [2]: 138 μm; sharpness index of the crystal thus obtained [2]: 4.7; sphericity of the spherulite [3]: 0.92±0.07

# — patent US20210391038A1, “SPECIFICALLY-SHAPED CRYSTAL OF COMPOUND AND METHOD FOR PRODUCING SAME” (TOWA PHARMACEUTICAL CO., LTD., priority 2018, published 2021)
